Earlier results in patent US20180133147A1, “Drug Delivery Systems” (Novartis AG, priority 2013, published 2018).
Like-named read-outs stand apart in the source and are kept apart here.

## octreotide pamoate
25° C.
  solubility in water: 200 µg/mL

## pasireotide pamoate
  solubility in water: 20 µg/mL

## vapreotide pamoate
PBS pH 7.4
  solubility in phosphate buffer saline: 20 to 40 µg/mL
